Assay results reported in patent publication US9492368B2, “External preparation for skin” (HAYASHIBARA CO., LTD., priority 2011, dated 2016).

Assay: Solubility in deuterium water
Type: physicochemical
Procedure: For reference, the above nigerosyl adenosine was observed as a minor peak with a retention time of about 22 to 23 min between the elution peak of adenosine and that of 3′-glucosyladenosine other than the elution peaks of 5′- and 3′-glucosyladenosines and adenosine. When the fraction corresponding to such a minor peak was collected and subjected to mass spectrum (MS) analysis in usual manner, it was calculated to have a molecular weight of […] and judged to be a compound composed of two molecules of glucose bound to adenosine. Using the collected fraction and based on the chemical shift (see Table 13) of the carbons and protons of the fraction on MNR analysis under the following conditions, the substance contained in the fraction was identified as 5′-nigerosyladenosine (α-D-glucopyranosyl-(1→3)-α-D-glucopyranosyl-(1→5′)-adenosine; 5′-α-nigerosyladenosine). Since 5′-nigerosyladenosine dissolves in deuterium water in an amount of at least 6 w/v %, it has a higher solubility in aqueous media than 3′-glucosyladenosine. The carbon chemical shifts of adenosine and nigerose were obtained from the spectrum data base of organic compounds opened by The National Institute of Advanced Industrial Science and Technology (AIST) (SDBS; http://riodb01.ibase.aist.go.jp/sdbs/cgi-bin/direct_frame_top.cgi).

Nc1ncnc2c1ncn2[C@@H]1O[C@H](CO[C@H]2O[C@H](CO)[C@@H](O)[C@H](O[C@H]3O[C@H](CO)[C@@H](O)[C@H](O)[C@H]3O)[C@H]2O)[C@@H](O)[C@H]1O [5′-nigerosyladenosine, α-D-glucopyranosyl-(1→3)-α-D-glucopyranosyl-(1→5′)-adenosine]
Amount that dissolves in deuterium water: at least 6 w/v %
